Literature values as cited in patent US20220125711A1, “CANNABINOID-CONTAINING ORAL THIN FILM FORMULATIONS” (JDEM Properties, LLC, priority 2020, published 2022).

Test system: Drosophila
Settings: dietary theanine, dose-dependent (Ki and Lim)

CCNC(=O)CC[C@H](N)C(=O)O [L-theanine]
daily amount of sleep: markedly increased
latency to sleep onset: decreased
